We go through eleven compounds from US10202349B2, “Asymmetric bis-acridines with antitumour activity and their uses” (POLITECHNIKA GDAŃSKA, priority 2015, dated 2019).

One experiment relates to AsPC-1. The experiment in a line: Cytotoxic activity in vitro, SRB. The class given is cell-based, human. The protocol:
(§1) Cytotoxic activity tests in-vitro. A measure of the cytotoxic activity of bis-acridines are the EC50 (concentration of studied compounds at which 50% inhibition of proliferation of tumorous is observed) of the evaluated compounds that inhibit the growth of 50% of cells in relation to a control. The cytotoxic activity of the compounds was determined using SRB, recommended by the US National Cancer Institute (USA). As the spectrum of 13 human origin neoplasms in bis-acridine screening studies, we used the following: HT 29 [CRC], HCT 116 [CRC], H 460 [lung cancer], MDA MB 231 [breast cancer], MCF-7 [breast cancer], UM UC3 [bladder cancer], PC 3 [prostate cancer], DU 145 [ prostate cancer], Panc-1 [pancreatic cancer], Mia Pa Ca 2 [pancreatic cancer], BXPC 3 [pancreatic cancer], AsPC1 [pancreatic cancer], Capan-2 [pancreatic cancer]. […] The DU-145 results were substantially a basis for selecting compounds and neoplasms for screening. The next neoplasms most sensitive to the cytotoxic activity of bis-acridines was the CRC HCT-116, as well as breast cancer MBA-MB-231. […] The cytotoxic activity of the remaining bis-acridines is significant or high (EC50 in the range from 1 to 0.04 μM). […] Panc-1, MiaPaCa-2 and Capan-2 are more sensitive, whereas for AsPC-1 and BxPC-3 this activity is at least an order of magnitude smaller.

In the next experiment the test system is BxPC-3. The experiment in a line: Cytotoxic activity in vitro, SRB. The class given is cell-based, human. The protocol:
as §1

Another experiment deals with DU-145. Nature of the experiment: Cytotoxic activity in vitro, SRB. The class given is cell-based, human. The protocol:
as §1

A further experiment has as its system HCT-116. The experiment in a line: Cytotoxic activity in vitro, SRB. The class given is cell-based, human. The protocol:
as §1

The next experiment has as its system MiaPaCa-2. The experiment in a line: Cytotoxic activity in vitro, SRB. The experiment is classed as cell-based, human. The protocol: as §1
In the next experiment the test system is PANC-1. The experiment in a line: Cytotoxic activity in vitro, SRB. The experiment is classed as cell-based, human. The protocol:
as §1

The test system of a further experiment is PANC 1. The experiment in a line: Anti-neoplasmic activity against xenograft in hairless mice. The experiment is classed as in vivo. The protocol:
(§2) For this, we selected 26 bis-acridines, mainly on the basis of the cytotoxic activity. We performed 34 series of experiments evaluating the anti-neoplasmic activity on xenografts in hairless mice against eleven neoplasms of human origin from the determination of the cytotoxic activity of bis-acridines (table 4). The tumours were injected subcutaneously to hairless mice of 5-weeks, female Crl:Nu-Foxnlnu, at a rate of 5×10^6 cells per mouse. After attaining a tumour of about 100 mm^3 or 200 mm^3 in depending on the neoplasm and its take this was 8 or even 30 days, and began therapy. On the day therapy was initiated, we randomised the animals and divided them into groups. Test groups were from 6 to 8 animals, and controls had from 8 to 14 animals. Each compound was tested at three differentiated doses.
(§3) The preparations were administered intravenously (i.v.) twice weekly for 4 weeks (thrice weekly for rapidly growing neoplasms). In several series, we used intraperitoneally (i.p.) administration in the same scheme. […] The therapeutic efficacy of the tested formulations was evaluated by measuring tumour size (length and width measurements of the tumour on the basis of the calculated tumour volume). Tumours were measured twice weekly for a period of about 30 days for fast-growing neoplasms, as well as about 60 days for the slow-growing neoplasms. The tumour volume in the treated groups compared with the control group. On this basis, inhibition of tumour growth was calculated using the following formula: Tumour growth inhibition TGI [%]=100−(ΔVT/ΔVC×100) Where ΔVT—is mean the tumour volume in animals in the group treated at the given day of treatment, minus the mean tumour volume in animals at the date of commencement of therapy. ΔVC is mean tumour volume in animals in the control group on a given day of treatment minus the average tumour volume of animals on the date of commencement of therapy. The results of the tests of anti-neoplasmic activity conducted in xenografts of human-origin neoplasms in mice are shown in Table 5.
(§4) The result above was accepted only in the case that the dose administered in all animals or more than half of the animals that survived to the end of the experiment. In addition, the evaluation was the day that the administration of the preparation was already completed: for the fast-growing neoplasms (eg. HCT116) this was in the days from 15 to 26, while for slow-growing neoplasms (eg. Panc 1) on a day from 34 to 60. […] In addition, the maximum inhibition of neoplasms could be identified in the day, in which there were no factors that could change the value TGI value.
(§5) Such factors may include: a significant decrease in body weight, the appearance of observable toxaemia, excessive rate of tumour growth: tumours in excess of 2000 mm^3 and all animals alive on that day.

For the next experiment, the system named is HT-29. Nature of the experiment: Cytotoxic activity in vitro, SRB. The experiment is classed as cell-based, human. The protocol:
as §1

In the next experiment the test system is MDA-MB-231. The experiment in a line: Cytotoxic activity in vitro, SRB. The class given is cell-based, human. The protocol:
as §1

In the next experiment the test system is DU 145. The experiment in a line: Anti-neoplasmic activity against xenograft in hairless mice. As to conditions: series 1, i.p., single 8 mg/kg, total 40 mg/kg, day 35, *at least half of animals did not survive. The class given is in vivo. The protocol:
as §2, §3, §4, §5

Another experiment relates to H-460. The experiment in a line: Cytotoxic activity in vitro, SRB. The class given is cell-based, human. The protocol: as §1
For another experiment, the system named is UM-UC-3. Nature of the experiment: Cytotoxic activity in vitro, SRB. The experiment is classed as cell-based, human. The protocol:
as §1

The test system of a further experiment is H 460. Nature of the experiment: Anti-neoplasmic activity against xenograft in hairless mice. The class given is in vivo. As to conditions: series 5, i.p., single 10 mg/kg, total 60 mg/kg, day 14. The protocol:
as §2, §3, §4, §5

A further experiment relates to MCF-7. Nature of the experiment: Cytotoxic activity in vitro, SRB. The class given is cell-based, human. The protocol:
as §1

The test system of a further experiment is BXPC 3. Nature of the experiment: Anti-neoplasmic activity against xenograft in hairless mice. The experiment is classed as in vivo. The conditions noted are these: series 25, i.v., single 20 mg/kg, total 160 mg/kg, day 29. The protocol:
as §2, §3, §4, §5

The term EC50 denotes the concentration that produces a half-maximal response. High values mean lower potency in that assay, low ones higher potency in that assay. For the compound “1-[3-(8-hydroxy-methylimidazo[4,5,1-de]-acridin-6-on-5-yl)aminopropyl]-4-[3′-(1′-nitroacridin-1-yl)-aminopropyl]piperazine [C-2051]”, the EC50 with AsPC-1 amounted to 0.151 µM; with BxPC-3, 0.152 µM; in the experiment with DU-145 it was 0.024 µM; with HCT-116 it was 0.027 µM; in the experiment with MiaPaCa-2, 0.018 µM; with PANC-1 it was 0.039 µM. Also, in the experiment on PANC 1 (series 27, i.v., single 2 mg/kg, total 16 mg/kg, day 40, *at least half of animals did not survive), the “TGI [%] [100 − (ΔVT/ΔVC × 100]” value was 68* %.

For `Cc1ccc(NCCNCCNc2c3ccccc3nc3cccc([N+](=O)[O-])c23)c2c(=O)c3ccccc3[nH]c12` [C-1965, 9-{N-[(4-methyl-9(10H)-acridono-1-yl)aminoethyl]ethylamino}-1′-nitroacridine], the EC50 in the experiment with DU-145 came to 0.243 µM; in the experiment with HT-29, 0.138 µM; in the experiment with MDA-MB-231, 0.137 µM; in the experiment with PANC-1 it was 0.212 µM. Moreover, the “TGI [%] [100 − (ΔVT/ΔVC × 100]” value in the experiment with DU 145 is listed as 61* %.

As for `Cc1ccc([N+](=O)[O-])c2c(NCCCNCCCNc3ccc(C)c4[nH]c5ccccc5c(=O)c34)c3ccccc3nc12` [C-2022, 9-{N-[(4-methyl-9(10H)-acridono-1-yl)aminopropyl]propylamino}-4′-methyl-1′-nitroacridine], the EC50 in the experiment with DU-145 was determined as 0.129 µM; in the experiment with H-460, 0.067 µM; with HCT-116, 0.085 µM; in the experiment on HT-29, 1.3 µM; in the experiment with PANC-1, 0.162 µM; with UM-UC-3, 0.105 µM. Further, the “TGI [%] [100 − (ΔVT/ΔVC × 100]” value in the experiment on H 460 is 25%.

As to `Cc1ccc([N+](=O)[O-])c2c(NCCCN(C)CCCNc3ccc(C)c4[nH]c5ccccc5c(=O)c34)c3ccccc3nc12` [C-2023, 9-{N-[(4-methyl-9(10H)-acridono-1-yl)aminopropyl]-N-methylaminopropylamino}-4′-methyl-1′-nitroacridine], the EC50 stood at 0.19 µM with DU-145, 0.071 µM with H-460, 0.12 µM in the experiment on HCT-116 and 0.123 µM in the experiment on HT-29.

Regarding `Cc1ccc([N+](=O)[O-])c2c(NCCNCCNCCNc3ccc(C)c4[nH]c5ccccc5c(=O)c34)c3ccccc3nc12` [C-2024, 9-[N-(4-methyl-9(10H)acridono-1-yl)-aminoethylaminoethylamino-ethylamino]-4′-methyl-1′-nitroacridine], the EC50 in the experiment with DU-145 was determined as 0.417 µM; in the experiment with H-460, 0.37 µM; in the experiment on HCT-116, 1.27 µM; with HT-29, 1.18 µM.

Regarding `Cc1ccc([N+](=O)[O-])c2c(NCCNCCNCCNc3ccc([N+](=O)[O-])c4[nH]c5ccccc5c(=O)c34)c3ccccc3nc12` [C-2032, 9-[N-(4-nitro-9(10H)acridono-1-yl)-aminoethylaminoethylamino-ethylamino]-4′-methyl-1′-nitroacridine], the EC50 was 1.69 µM in the experiment on DU-145, 0.85 µM with HCT-116, 1.31 µM with PANC-1 and 0.73 µM with UM-UC-3.

Consider `Cc1ccc(NCCCNCCCNc2c3ccccc3nc3cccc([N+](=O)[O-])c23)c2c(=O)c3ccccc3[nH]c12` [C-2038, 9-{N-[(4-methyl-9(10H)-acridono-1-yl)aminopropyl]propylamino}-1′-nitroacridine], for which the EC50 in the experiment on DU-145 came to 0.184 µM; in the experiment on MCF-7 it was 0.228 µM; in the experiment with MiaPaCa-2, 0.28 µM; with PANC-1, 0.377 µM.

`O=c1c2cc(O)ccc2n2nnc3ccc(NCCCN4CCN(CCCNc5c6ccccc6nc6cccc([N+](=O)[O-])c56)CC4)c1c32` [C-2047, 1-[3-(8-hydroxy-6H-[1,2,3]triazolo[4,5,1-de]-acridin-6-on-5-yl)aminopropyl]-4-[3′-(1′-nitroacridin-1-yl)-aminopropyl]piperazine]: the EC50 in the experiment with DU-145 amounted to 0.017 µM; in the experiment on H-460, 0.036 µM; in the experiment on HCT-116, 0.017 µM; in the experiment on HT-29, 0.029 µM.

Turning to `O=c1c2ccccc2n2nnc3ccc(NCCCN4CCN(CCCNc5c6ccccc6nc6cccc([N+](=O)[O-])c56)CC4)c1c32` [C-2048, 1-[3-(6H-[1,2,3]triazolo[4,5,1-de]-acridin-6-on-5-yl)aminopropyl]-4-[3′-(1′-nitroacridin-1-yl)-aminopropyl]piperazine], the EC50 is 0.022 µM in the experiment on DU-145; 0.041 µM in the experiment with HCT-116; 0.152 µM with HT-29; 0.103 µM with MCF-7; 0.033 µM in the experiment with MDA-MB-231; 0.12 µM in the experiment with UM-UC-3. In the experiment with PANC 1 (series 30, i.v., single 4 mg/kg, total 24 mg/kg, day 52), the “TGI [%] [100 − (ΔVT/ΔVC × 100]” value stood at 86%.

Consider `Cc1ccc([N+](=O)[O-])c2c(NCCCN3CCN(CCCNc4ccc5ncn6c7ccccc7c(=O)c4c56)CC3)c3ccccc3nc12` [C-2050, 1-[3-(imidazo[4,5,1-de]-acridin-6-on-5-yl)aminopropyl]-4-[3′-(4′-methyl-1′-nitroacridin-1-yl)-aminopropyl]piperazine], for which the half-maximal effective concentration (EC50) with AsPC-1 turned out to be 0.24 µM; in the experiment on BxPC-3, 0.351 µM; in the experiment with DU-145 it was 0.062 µM; with HCT-116 it was 0.045 µM; in the experiment with MiaPaCa-2 it was 0.058 µM; in the experiment with PANC-1, 0.065 µM. For the same compound, the “TGI [%] [100 − (ΔVT/ΔVC × 100]” value in the experiment with BXPC 3 worked out at 40%; with PANC 1 (series 24, i.v., single 20 mg/kg, total 160 mg/kg, day 50), 64%; in the experiment on PANC 1 (series 26, i.v., single 30 mg/kg, total 160 mg/kg, day 40) it was 64%.

For `CN(CCCNc1c2ccccc2nc2cccc([N+](=O)[O-])c12)CCCNc1ccc2nnn3c4ccc(O)cc4c(=O)c1c23` [C-2052, 9-{N-[(8-hydroxy-6H-[1,2,3]triazolo[4,5,1-de]-acridin-6-on-5-yl)aminopropyl]-N-methylaminopropylamino}-1′-nitroacridine], the EC50 in the experiment on DU-145 was determined as 0.028 µM; with H-460, 0.074 µM; in the experiment with MCF-7, 0.22 µM; with UM-UC-3, 0.155 µM. Further, in the experiment on PANC 1 (in words, scale of b125: TGI≥80% as high activity), the “activity against Panc-1 pancreatic cancer” value is “high level of activity”. For the same compound, the “TGI [%] [100 − (ΔVT/ΔVC × 100]” value with PANC 1 (series 30, i.v., single 1 mg/kg, total 8 mg/kg, day 52) is on record as 39%.
